Results as given in US9593108B2, “Compounds and methods for antiviral treatment” (PTC Therapeutics, Inc., priority 2009, dated 2017).

How the values were obtained:
[1] = system: HCV replicon RNA (GenBank Accession No. AJ242654); assay: HCV Replicon Assay (replicon RNA reduction and/or Fluc reporter signal); format: cell-based, Hepatitis C virus; conditions: Hepatitis C virus, 72 h, replicon-containing cells cultured with test compound for up to 3 days
Method in brief: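 Bicistronic replicon-containing cells cultured with compound for up to 3 days, with interferon as positive control. Inhibition quantified by replicon RNA reduction and/or Fluc reporter signal; IC50 values generally derived from replicon RNA reduction.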

| SMILES | melting point | IC50 [1] |
| --- | --- | --- |
| Cc1cnc2c(C#N)c(-c3ccc(S(=O)(=O)N[C@@H](C)C(F)(F)F)cn3)n(-c3cc(C(F)(F)F)ccn3)c2c1 [Cpd 479, 6-{3-cyano-6-methyl-1-[4-(trifluoromethyl)pyridin-2-yl]-1H-pyrrolo[3,2-b]pyridin-2-yl}-N-[(2S)-1,1,1-trifluoropropan-2-yl]pyridine-3-sulfonamide] | 245 to 246 °C | 0.5 to 2 µM |
| CC(C)NS(=O)(=O)c1ccc(-c2c(C#N)c3cccnc3n2C2CCC2)cc1 [Cpd 7, 4-(3-cyano-1-cyclobutyl-1H-pyrrolo[2,3-b]pyridin-2-yl)-N-(propan-2-yl)benzenesulfonamide] | 198 to 200 °C | 0.5 to 2 µM |
| COc1ccc2c(C#N)c(-c3ccc(S(=O)(=O)NC(CF)CF)cn3)n(C3CCC3)c2n1 [Cpd 41, 6-(3-cyano-1-cyclobutyl-6-methoxy-1H-pyrrolo[2,3-b]pyridin-2-yl)-N-(1,3-difluoropropan-2-yl)pyridine-3-sulfonamide] | 194 to 195 °C | < 0.5 µM |
| CC(C)(C)NS(=O)(=O)c1ccc(-c2c(C#N)c3cc(Cl)cnc3n2C2CCC2)nc1 [Cpd 52, N-tert-butyl-6-(5-chloro-3-cyano-1-cyclobutyl-1H-pyrrolo[2,3-b]pyridin-2-yl)pyridine-3-sulfonamide] | 207 to 208 °C | < 0.5 µM |
| N#Cc1c(-c2ccc(S(=O)(=O)NC(CF)CF)cn2)n(C2CCC2)c2ncc(Cl)cc12 [Cpd 14, 6-(5-chloro-3-cyano-1-cyclobutyl-1H-pyrrolo[2,3-b]pyridin-2-yl)-N-(1,3-difluoropropan-2-yl)pyridine-3-sulfonamide] | 176 to 178 °C | < 0.5 µM |
| CC(C)(C)NS(=O)(=O)c1ccc(-c2c(C(N)=O)c3cc(Cl)cnc3n2C2CCC2)cc1 [Cpd 393, 2-[4-(tert-butylsulfamoyl)phenyl]-5-chloro-1-cyclobutyl-1H-pyrrolo[2,3-b]pyridine-3-carboxamide] | 269 to 270 °C | < 0.5 µM |
| CCOc1cnc2c(c1)c(C#N)c(-c1ccc(S(=O)(=O)N[C@H](C)C(F)(F)F)cn1)n2C1CCC1 [Cpd 203, 6-(3-cyano-1-cyclobutyl-5-ethoxy-1H-pyrrolo[2,3-b]pyridin-2-yl)-N-[(2R)-1,1,1-trifluoropropan-2-yl]pyridine-3-sulfonamide] | 180 to 181 °C | < 0.5 µM |
| CSc1cnc2c(c1)c(C#N)c(-c1ccc(S(=O)(=O)N[C@@H](C)C(F)(F)F)cn1)n2C1CCCC1 [Cpd 272, 6-[3-cyano-1-cyclopentyl-5-(methylsulfanyl)-1H-pyrrolo[2,3-b]pyridin-2-yl]-N-[(2S)-1,1,1-trifluoropropan-2-yl]pyridine-3-sulfonamide] | 168 to 172 °C | < 0.5 µM |
| Cc1cnc2c(c1)c(C#N)c(-c1ccc(S(=O)(=O)N[C@@H](C)C(F)(F)F)cn1)n2-c1cc(N)ccn1 [Cpd 434, 6-[1-(4-aminopyridin-2-yl)-3-cyano-5-methyl-1H-pyrrolo[2,3-b]pyridin-2-yl]-N-[(2S)-1,1,1-trifluoropropan-2-yl]pyridine-3-sulfonamide] | 202 to 203 °C | 2 to 5 µM |
| Cc1cnc2c(C#N)c(-c3ccc(S(=O)(=O)N[C@@H](C)C(F)(F)F)cn3)n(-c3cncnc3)c2c1 [Cpd 464, 6-[3-cyano-6-methyl-1-(pyrimidin-5-yl)-1H-pyrrolo[3,2-b]pyridin-2-yl]-N-[(2S)-1,1,1-trifluoropropan-2-yl]pyridine-3-sulfonamide] | 229 to 230 °C | 2 to 5 µM |
| Cc1cnc2c(C#N)c(-c3ccc(S(=O)(=O)NC4(C)CC4)cn3)n(C3CCC3)c2c1 [Cpd 210, 6-(3-cyano-1-cyclobutyl-6-methyl-1H-pyrrolo[3,2-b]pyridin-2-yl)-N-(1-methylcyclopropyl)pyridine-3-sulfonamide] | 187 to 188 °C | < 0.5 µM |
| C[C@H](NS(=O)(=O)c1ccc(-c2c(C#N)c3cc(Cl)cnc3n2C2CCC2)cc1)C(F)(F)F [Cpd 61, 4-(5-chloro-3-cyano-1-cyclobutyl-1H-pyrrolo[2,3-b]pyridin-2-yl)-N-[(2S)-1,1,1-trifluoropropan-2-yl]benzenesulfonamide] | 220 to 222 °C | < 0.5 µM |
| Cc1cnc2c(c1)c(C#N)c(-c1ccc(S(=O)(=O)N[C@@H](C)C(F)(F)F)cn1)n2-c1ccncn1 [Cpd 431, 6-[3-cyano-5-methyl-1-(pyrimidin-4-yl)-1H-pyrrolo[2,3-b]pyridin-2-yl]-N-[(2S)-1,1,1-trifluoropropan-2-yl]pyridine-3-sulfonamide] | 233 to 235 °C | < 0.5 µM |
| CCc1cnc2c(c1)c(C#N)c(-c1ccc(S(=O)(=O)NC(CF)CF)cn1)n2C1CCC1 [Cpd 191, 6-(3-cyano-1-cyclobutyl-5-ethyl-1H-pyrrolo[2,3-b]pyridin-2-yl)-N-(1,3-difluoropropan-2-yl)pyridine-3-sulfonamide] | 157 to 165 °C | 0.5 to 2 µM |
| Cc1ccc2c(C#N)c(-c3ccc(S(=O)(=O)NC(CF)CF)cn3)n(C3CCC3)c2n1 [Cpd 146, 6-(3-cyano-1-cyclobutyl-6-methyl-1H-pyrrolo[2,3-b]pyridin-2-yl)-N-(1,3-difluoropropan-2-yl)pyridine-3-sulfonamide] | 180 to 188 °C | < 0.5 µM |
| Cc1cnc2c(C#N)c(-c3ccc(S(=O)(=O)N[C@@H](C)C(F)(F)F)cn3)n(-c3ccncn3)c2c1 [Cpd 481, 6-[3-cyano-6-methyl-1-(pyrimidin-4-yl)-1H-pyrrolo[3,2-b]pyridin-2-yl]-N-[(2S)-1,1,1-trifluoropropan-2-yl]pyridine-3-sulfonamide] | 265 to 267 °C | < 0.5 µM |
| Cc1ccc2c(C#N)c(-c3ccc(S(=O)(=O)NC4(C(F)(F)F)CC4)cc3)n(C3CCC3)c2n1 [Cpd 140, 4-(3-cyano-1-cyclobutyl-6-methyl-1H-pyrrolo[2,3-b]pyridin-2-yl)-N-[1-(trifluoromethyl)cyclopropyl]benzenesulfonamide] | 205 to 212 °C | 0.5 to 2 µM |
| Cc1cnc2c(c1)c(C#N)c(-c1ccc(S(=O)(=O)N[C@@H](C)C(F)(F)F)cn1)n2-c1ccnnc1 [Cpd 436, 6-[3-cyano-5-methyl-1-(pyridazin-4-yl)-1H-pyrrolo[2,3-b]pyridin-2-yl]-N-[(2S)-1,1,1-trifluoropropan-2-yl]pyridine-3-sulfonamide] | 196 to 198 °C | < 0.5 µM |
| CCc1cnc2c(c1)c(C#N)c(-c1ccc(S(=O)(=O)N[C@H](C)C(F)(F)F)cc1)n2C1CCC1 [Cpd 156, 4-(3-cyano-1-cyclobutyl-5-ethyl-1H-pyrrolo[2,3-b]pyridin-2-yl)-N-[(2R)-1,1,1-trifluoropropan-2-yl]benzenesulfonamide] | 194 to 201 °C | 0.5 to 2 µM |
| Cc1cc2c(cn1)c(C#N)c(-c1ccc(S(=O)(=O)N[C@H](C)C(F)(F)F)cn1)n2C1CCC1 [Cpd 29, 6-(3-cyano-1-cyclobutyl-6-methyl-1H-pyrrolo[3,2-c]pyridin-2-yl)-N-[(2R)-1,1,1-trifluoropropan-2-yl]pyridine-3-sulfonamide] | 176 to 178 °C | < 0.5 µM |
| C[C@@H](NS(=O)(=O)c1ccc(-c2c(C#N)c3cccnc3n2C2CCC2)nc1)C(F)(F)F [Cpd 35, 6-(3-cyano-1-cyclobutyl-1H-pyrrolo[2,3-b]pyridin-2-yl)-N-[(2R)-1,1,1-trifluoropropan-2-yl]pyridine-3-sulfonamide] | 184 to 186 °C | < 0.5 µM |
| CC(C)(NS(=O)(=O)c1ccc(-c2c(C(N)=O)c3cccnc3n2C2CCC2)cc1)C(F)(F)F [Cpd 388, 1-cyclobutyl-2-{4-[(1,1,1-trifluoro-2-methylpropan-2-yl)sulfamoyl]phenyl}-1H-pyrrolo[2,3-b]pyridine-3-carboxamide] | 240 to 242 °C | 0.5 to 2 µM |
| C[C@H](NS(=O)(=O)c1ccc(-c2c(C#N)c3cc(C(F)F)cnc3n2C2CCC2)nc1)C(F)(F)F [Cpd 452, 6-[3-cyano-1-cyclobutyl-5-(difluoromethyl)-1H-pyrrolo[2,3-b]pyridin-2-yl]-N-[(2S)-1,1,1-trifluoropropan-2-yl]pyridine-3-sulfonamide] | 158 to 159 °C | < 0.5 µM |
| Cc1ccc2c(C#N)c(-c3ccc(S(=O)(=O)N[C@@H](C)C(F)(F)F)cc3)n(C3CCC3)c2n1 [Cpd 90, 4-(3-cyano-1-cyclobutyl-6-methyl-1H-pyrrolo[2,3-b]pyridin-2-yl)-N-[(2S)-1,1,1-trifluoropropan-2-yl]benzenesulfonamide] | 169 to 177 °C | < 0.5 µM |
| C[C@H](NS(=O)(=O)c1ccc(-c2c(C(N)=O)c3cc(C(F)(F)F)cnc3n2C2CCC2)nc1)C(F)(F)F [Cpd 304, 1-cyclobutyl-5-(trifluoromethyl)-2-(5-{[(2S)-1,1,1-trifluoropropan-2-yl]sulfamoyl}pyridin-2-yl)-1H-pyrrolo[2,3-b]pyridine-3-carboxamide] | 219 to 221 °C | < 0.5 µM |
| Cc1cnc2c(c1)c(C#N)c(-c1ccc(S(=O)(=O)NC(C)(C)C)cn1)n2C1CCC1 [Cpd 293, N-tert-butyl-6-(3-cyano-1-cyclobutyl-5-methyl-1H-pyrrolo[2,3-b]pyridin-2-yl)pyridine-3-sulfonamide] | 173 to 175 °C | < 0.5 µM |
| CC(C)NS(=O)(=O)c1ccc(-c2c(C#N)c3cc(C(F)F)cnc3n2C2CCC2)nc1 [Cpd 455, 6-[3-cyano-1-cyclobutyl-5-(difluoromethyl)-1H-pyrrolo[2,3-b]pyridin-2-yl]-N-(propan-2-yl)pyridine-3-sulfonamide] | 189 to 190 °C | < 0.5 µM |
| CCc1nc2c(cc1OC)c(C#N)c(-c1ccc(S(=O)(=O)N[C@@H](C)C(F)(F)F)cn1)n2C1CCC1 [Cpd 258, 6-(3-cyano-1-cyclobutyl-6-ethyl-5-methoxy-1H-pyrrolo[2,3-b]pyridin-2-yl)-N-[(2S)-1,1,1-trifluoropropan-2-yl]pyridine-3-sulfonamide] | 186 to 189 °C | < 0.5 µM |
